Measurements: patent US20030175912A1, “Method of producing L-serine by fermentation” (AJINOMOTO CO. INC, priority 1998, published 2003)

What was measured:
[1] = system: Brevibacterium flavum AJ13325; assay: Growth in the presence of β-(2-thienyl)-DL-alanine; format: cell-based; conditions: 0.25 g/L of β-(2-thienyl)-DL-alanine
Method: Similarly, the term “β-(2-thienyl)-DL-alanine resistance” refers to the property that a bacterium grows faster than the wild type in a medium containing β-(2-thienyl)-DL-alanine. For example, those strains that form colonies on a solid medium containing 0.25 g/L of β-(2-thienyl)-DL-alanine at 30° C. within 4 to 5 days are said to have β-(2-thienyl)-DL-alanine resistance.
(§1) To select β-(2-thienyl)-DL-alanine resistant strains from NG treated strains using Brevibacterium flavum AJ13377 as a parent strain, Brevibacterium flavum AJ13377 cells were NG treated and washed before their inoculation on a minimal medium for selection. The minimal medium for selection was a medium that contained 20 g of glucose, 1 g of ammonium sulfate, 1 g of potassium dihydrogen phosphate, 2.5 g of urea, 0.4 g of magnesium sulfate heptahydrate, 0.01 g of iron (II) sulfate heptahydrate, 0.01 g of manganese sulfate tetra- to pentahydrate, 50 μg of biotin, 200 μg of thiamin hydrochloride, 200 μg of nicotinic acid amide, and 250 mg of β-(2-thienyl)-DL-alanine per liter of distilled water. The NG treated mutant was incubated in the above-described medium at 30° C. for 5 to 10 days. The cell culture thus obtained was spread on a bouillon agar medium and incubated at 30° C. for 24 hours for colony formation. β-(2-Thienyl)-DL-alanine resistant strains were obtained from the strains that formed colonies. […]

[2] = system: Brevibacterium flavum AJ13324 and AJ13327; assay: Growth in the presence of azaserine; format: cell-based; conditions: 0.25 g/L of azaserine
Method: More specifically, for example, the term “azaserine resistance” refers to the property that a bacterium grows faster than the wild type in a medium containing azaserine. For example, those strains that form colonies on a solid medium containing 0.25 g/L of azaserine at 30° C. within 4 to 5 days are said to have azaserine resistance.
as §1, with “azaserine” for “β-(2-thienyl)-DL-alanine”, “strain, NG treated” for “strain,”, “cells after washed” for “cells”, “inoculated” for “NG treated and washed before their inoculation”, “Azaserine” for “β-(2-Thienyl)-DL-alanine”, “colonies. The mutants thus obtained included many strains that accumulated L-serine in considerable amounts at high yields.” for “colonies.”

[3] = system: 3-PGDH derived from a wild type coryneform bacterium (ATCC 14067); assay: Feedback inhibition of 3-PGDH by L-serine, enzyme of wild type strain; format: biochemical, Brevibacterium flavum; conditions: 10 mM of L-serine
Method: (§2) After collecting cells from the culture broth of each strain, the cells were washed twice with physiological saline and suspended in 50 mM sodium phosphate buffer (pH 7.0) containing 2 mM dithiothreitol. After ice cooling, the suspension was subjected to a sonicator to fragment the cells and the resulting liquid was ultracentrifuged. The ultracentrifugaton was run at 45,000 rpm for 1 hour to obtain a crude enzyme solution.
(§3) The enzyme activity of 3-PGDH was measured by the method of Salach H. J. et al. (Method in Enzymology, vol 9, 216-220 (1966)).
(§4) More specifically, 0.4 ml of 0.015 M NAD, 0.12 ml of 0.25 M EDTA (pH 9, NaOH), 0.1 ml of 0.05 M glutathione (pH 6, KOH), 0.5 ml of 1 M hydrazine (pH 9, acetate), 0.6 ml of 1 M Tris (pH 9, HCl), a suitable concentration of L-serine (0 to 40 mM), and water to make 2.3 ml, warmed to 25° C. in advance, were added. Then, 0.2 ml of the crude enzyme solution was added and the temperature was kept the same for 5 minutes. Thereafter, 0.5 ml of 0.1 M 3-PGA (3-phosphoglycerate disodium salt, pH 7, NaOH) was added. After stirring, the absorbance at 340 nm of the reaction mixture was measured for 30 seconds. The reaction was carried out at 25° C.
(§5) For the measurement of activity, Hitachi U-2000A spectrophotometer was used.

[4] = system: 3-PGDH derived from Brevibacterium flavum AJ13327; assay: Feedback inhibition of 3-PGDH by L-serine, enzyme of AJ13327; format: biochemical
Method: as §2, §3
[…] Then, 0.2 ml of the crude enzyme solution was added and the temperature was kept the same for 5 minutes. Thereafter, 0.5 ml of 0.1 M 3-PGA (3-phosphoglycerate disodium salt, pH 7, NaOH) was added. After stirring, the absorbance at 340 nm of the reaction mixture was measured for 30 seconds. The reaction was carried out at 25° C.
as §5

[5] = system: 3-PGDH derived from AJ13377 strain; assay: Feedback inhibition of 3-PGDH by L-serine, enzyme of AJ13377; format: biochemical, Brevibacterium flavum; conditions: compared with wild type strain ATCC 14067; FIG. 1
Method: as §2, §3, §4, §5

[6] = system: 3-PGDH derived from AJ13324 strain; assay: Feedback inhibition of 3-PGDH by L-serine, enzyme of AJ13324; format: biochemical, Brevibacterium flavum; conditions: compared with AJ13377; FIG. 1
Method: as §2, §3, §4, §5

[7] = system: 3-PGDH derived from AJ13325 strain; assay: Feedback inhibition of 3-PGDH by L-serine, enzyme of AJ13325; format: biochemical, Brevibacterium flavum; conditions: compared with AJ13324; FIG. 1
Method: as §2, §3, §4, §5

**Q.** For NC(Cc1cccs1)C(=O)O (racemic) [β-(2-thienyl)-DL-alanine], which “growth of resistant strains in the presence of β-(2-thienyl)-DL-alanine” value [1] is on record?
**A.** The value was “able to grow”.

**Q.** How did the “growth of resistant strains in the presence of azaserine” value [2] turn out when [N-]=[N+]=CC(=O)OC[C@H](N)C(=O)O [azaserine] was run?
**A.** Its value is “able to grow”.

**Q.** N[C@@H](CO)C(=O)O [L-serine] was tested. Which “inhibition of 3-PGDH activity by L-serine” value [3] did it give?
**A.** The value was “almost completely inhibited”.

**Q.** And the “feedback inhibition of 3-PGDH by L-serine” value ([4]; 80 mM L-serine, FIG. 1)?
**A.** Its value is “completely desensitized”.

**Q.** What about the “3-PGDH activity retained in the presence of L-serine” value ([4]; 80 mM of L-serine, relative to activity in the absence of L-serine) of the same compound?
**A.** The value was ~100%.

**Q.** And the “L-serine sensitivity of 3-PGDH” value [5]?
**A.** The value was “relieved of L-serine sensitivity”.

**Q.** And the “L-serine sensitivity of 3-PGDH” value [6]?
**A.** Its value is “more relieved of L-serine sensitivity”.

**Q.** And the “L-serine sensitivity of 3-PGDH” value [7]?
**A.** The value was “of the same level as the AJ13324 strain”.
